Experimental data reported in PubChem BioAssay (NCI).
Where “and” joins values, the source holds several entries; their conditions need not be identical. Identical values can stand only once.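 Five compound concentrations were applied to cells in 96-well plates for 48 hours; endpoints were derived by simple linear interpolation of the resulting dose-response curve. Abbreviation: GI50, concentration required for 50% inhibition of growth. TGI marks complete inhibition of growth.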

Experiments:
Assay in all cases: NCI tumour cell line growth inhibition, 48 h
HCT-116 colon = tested on: HCT-116 colon
COLO 205 colon = tested on: COLO 205 colon
A498 renal = tested on: A498 renal
UO-31 renal = tested on: UO-31 renal
LOX IMVI melanoma = tested on: LOX IMVI melanoma
MCF7 breast = tested on: MCF7 breast
OVCAR-5 ovarian = tested on: OVCAR-5 ovarian
SR leukemia = tested on: SR leukemia
DU-145 prostate = tested on: DU-145 prostate
HOP-92 NSCLC = tested on: HOP-92 NSCLC

Compound | GI50 (HCT-116 colon) | TGI (HCT-116 colon) | GI50 (COLO 205 colon) | TGI (COLO 205 colon) | GI50 (A498 renal) | TGI (A498 renal) | GI50 (UO-31 renal) | TGI (UO-31 renal) | GI50 (LOX IMVI melanoma) | TGI (LOX IMVI melanoma) | GI50 (MCF7 breast) | TGI (MCF7 breast) | GI50 (OVCAR-5 ovarian) | TGI (OVCAR-5 ovarian) | GI50 (SR leukemia) | TGI (SR leukemia) | GI50 (DU-145 prostate) | TGI (DU-145 prostate) | GI50 (HOP-92 NSCLC) | TGI (HOP-92 NSCLC)
Oc1ccc(-c2nc3ccccc3s2)cc1CN(Cc1ccccn1)Cc1ccccn1 | 0.59 µM | 14 µM | 3.4 µM | 15.2 µM | 2.66 µM | 18.6 µM | 0.0834 µM | 2.49 µM | 1.21 µM | 10.7 µM | 1.19 µM | 15.2 µM | 2.92 µM | 29.8 µM | 2.14 µM | > 100 µM | 1.26 µM | 20.8 µM | 4.19 µM | 36.7 µM
CCC(=C/[C@H](C)C/C=C/C(C)=C/[C@@H](C)C(=O)[C@@H](C)[C@H](O)[C@@H](C)CC)/C=C/[C@@H]1OC(=O)C=C[C@H]1C | < 0.01 µM | < 0.01 µM | < 0.01 µM | < 0.0166 µM | < 0.01 µM | < 0.01 µM | < 0.01 µM |  | < 0.01 µM | < 0.01 µM | < 0.01 µM | 1.23 µM | < 0.01 µM | 1.8 µM | < 0.01 µM | 0.115 µM | < 0.01 µM | 4.42 µM | < 0.01 µM | < 0.01 µM
COc1ccc2c(=O)cc(C(Cl)(Cl)Cl)oc2c1 | 0.299 µM | 14.3 µM |  |  | 0.213 µM | 3.36 µM | 0.637 µM | 15.7 µM | 0.173 µM | 5.03 µM | 0.262 µM | 14.6 µM | 0.385 µM | 15.8 µM | 0.058 µM | 91.5 µM | 0.309 µM | 0.971 µM | 0.361 µM | 23.3 µM
CCN(CC)CCCNCc1cc(-c2ccccc2)nc2ccccc12 | 0.352 µM | 17.9 µM | 15.8 µM | 31.3 µM | 12.3 µM | 41.3 µM | 3.96 µM | 50.5 µM | 2.32 µM | 11.4 µM | 4.12 µM | 16.9 µM | 37.9 µM | > 100 µM | 0.348 µM | 13.1 µM | 21.2 µM | > 100 µM | 2.34 µM | 9.41 µM
CC(=O)c1c(C)[nH]c(-c2nc3ccc(N4CCN(C)CC4)cc3[nH]2)c1-c1ccc(N(C)C)cc1 | 0.803 µM | 13.6 µM | 0.292 µM | 14 µM | 0.323 µM | 1.98 µM | 0.211 µM | 7.33 µM | 0.359 µM | 1.85 µM | 0.24 µM | 7.78 µM | 1.8 µM | > 65 µM | 0.923 µM | 6.81 µM | 5.37 µM | > 83.6 µM | 0.147 µM | 2.53 µM
C[As](C)SCC(COC(=O)C(Cl)c1ccccc1)OC(=O)C(Cl)c1ccccc1 (centres undefined) | 0.439 µM | 2.67 µM | 1.43 µM |  | 4.34 µM | 17.2 µM | 1.55 µM | > 44.4 µM |  |  | 0.46 µM | 12.9 µM | 6.69 µM | > 37.2 µM | 1.41 µM | 5.84 µM | 1.24 µM | 16.9 µM | 0.381 µM | 3.9 µM
O=c1[nH]c(=S)[nH]c2c1CN(CCCN1CCOCC1)CN2 |  | > 100 µM |  | 38.6 µM |  | > 100 µM |  | > 100 µM |  | 62.4 µM |  | > 100 µM |  | > 100 µM |  | > 100 µM |  | > 100 µM |  | > 100 µM
CCN(CC)CC(O)CNc1c2ccc([N+](=O)[O-])cc2nc2cc(OC)c(OC)cc12 (centres undefined) | 0.2 µM | 0.636 µM |  |  | 1.36 µM | 3.08 µM | 2.21 µM | 12.9 µM | 0.238 µM | 0.662 µM | 0.0534 µM | 0.761 µM | 0.306 µM | 2.55 µM | 0.303 µM | 11.1 µM | 0.304 µM | 1.3 µM | 0.164 µM | 0.642 µM
CC(C)=CCC/C(C)=C/CC/C(C)=C/CSc1ccccc1C(=O)O |  | 56.7 µM and 30.4 µM | 36.8 µM | > 100 µM and 48.4 µM | 21.3 µM | 54.6 µM and 56.7 µM | 17.7 µM | 37.1 µM | 26.6 µM | > 68.5 µM and 35.4 µM | 33.5 µM | 99.1 µM and 56 µM | 23.1 µM | 62.6 µM and 36.3 µM | 22.5 µM | 59.1 µM | 24.6 µM | 55.1 µM and 33.5 µM | 19.3 µM | 57.1 µM and 59.7 µM
O=C1C=CC(=Nc2cc(Br)c(O)c(Br)c2)C=C1 | 11.5 µM | 26.3 µM | 20 µM | 52 µM | 26.5 µM | > 100 µM | 22 µM | > 100 µM | 21.6 µM | 66.6 µM | 7.87 µM | > 100 µM | 24.4 µM | 60.5 µM | 2.13 µM | > 100 µM | 30 µM | > 100 µM | 39.6 µM | > 100 µM
CC(C)(C)c1cc(-n2c(-c3ccc(Cl)cc3)nc3cc(C(=O)Nc4ccc(Cl)cc4)ccc32)n[nH]1 | 3.84 µM | > 100 µM | 4.71 µM | > 100 µM | 1.99 µM | > 100 µM | 2.69 µM | > 100 µM |  |  | 3.93 µM | > 100 µM | > 100 µM | > 100 µM | > 100 µM | > 100 µM | 8.5 µM | > 100 µM | 1.65 µM | 6.51 µM
CNC(=O)c1ccccc1Nc1nc(Nc2cc(OC)c(OC)c(OC)c2)ncc1Br |  |  | 0.0151 µM | 0.0591 µM | < 0.0109 µM | 0.0368 µM | < 0.014 µM | 0.0849 µM | 0.0183 µM | 0.0917 µM | 0.0374 µM | 2.78 µM | 0.0321 µM | 31.7 µM | 0.0254 µM |  | 0.0348 µM | 42.1 µM | < 0.0152 µM | 0.0874 µM
O=C(COc1cc(O)c2c(=O)cc(-c3ccccc3)oc2c1)Nc1ccccc1C(F)(F)F | 1.83 µM | 4.06 µM | 8.04 µM | > 100 µM | 4.04 µM | 17.8 µM |  |  | 4.74 µM | 22.6 µM | 7.4 µM | > 100 µM | 7.18 µM | > 100 µM | 4.44 µM | > 100 µM | 7.97 µM | > 100 µM | 2.13 µM | 6.71 µM
